Measured values reported in PubChem BioAssay AID624372 (Broad Institute, 2012).
Inconclusive results are not listed. Calls of active or inactive are those of the source.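 How the source made its calls: active means fitted curve reaches -35% activity change below twice the top valid dose, with every replicate test called active; inconclusive means replicate tests disagree on the call; inactive means every replicate test called inactive.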

Tested on: HEK293T viability, CellTiter-Glo ATP luminescence, 48 h
Experiment: HEK293T cell viability, dose response, counter-screen for EBV LMP1 inhibitor project, CellTiter-Glo luminescence, dry powder (AID 624372)
Conditions: not given
Work on `C/C(=N\NC(=S)Nc1cccc(Cl)c1)c1ccccn1` yielded an AC35 of 16.2 µM.
Work on `C/C(=N\NC(=S)N1CCCCC1)c1cccc(C)n1` yielded an AC35 of 0.785 µM.
Work on `C/C(=N\NC(=S)N1CC2CCC(CC2)C1)c1cnccn1` yielded an AC35 of 7.95 µM.
With `C/C(=N\NC(=S)N1CCCC1)c1ccccn1` the AC35 was 11 µM.
`C[C@H](CO)N1C[C@H](C)[C@H](CN(C)C(=O)Nc2ccc(C(F)(F)F)cc2)OCCCC[C@H](C)Oc2ccc(NC(=O)Nc3ccc(F)cc3)cc2C1=O` showed an AC35 of 48.2 µM.
`COc1ccc(NC(=O)c2ccc(OC(C)C(=O)O)cc2)cc1Cl` (centres undefined) gave an AC35 of 37.6 µM.
Work on `Cc1ccnc(NC(=O)c2ccc(C(=O)c3ccccc3)cc2)c1` yielded an AC35 of 72 µM.
`C/C(=N\NC(=S)N1CC2CCC(CC2)C1)c1cccc(C)n1` gave an AC35 of 2.02 µM.
`S=C(NCc1ccccn1)N/N=C/c1ccccn1` showed an AC35 of 29.6 µM.
`C=C1C[C@]23C[C@@]1(O)CC[C@@H]2c1cccc(C)c1[C@@H]3C(=O)O` gave an AC35 of 7.6 µM.
In the case of `Cc1c(NC(=O)c2cccc(NC(=O)COc3ccccc3C#N)c2)c(=O)n(-c2ccccc2)n1C`, the AC35 is reported as 24.4 µM.
Molecule `CCC(Sc1nnc2c3ccccc3n(Cc3ccc(Br)cc3)c2n1)C(=O)NCCCN1CCOCC1` (centres undefined) has an AC35 of 21.2 µM.
Work on `C/C=C/C/C=C/CCC(=O)[C@H]1O[C@H]1C(N)=O` yielded an AC35 of 18.3 µM.
Molecule `O=c1[nH]c(=O)n([C@H]2C[C@H](O)[C@@H](CO)O2)cc1C(F)(F)F` has an AC35 of 27.4 µM.
In the case of `COCCCNC(=O)C(C)Sc1nnc2c3cc(C)ccc3n(Cc3ccccc3F)c2n1` (centres undefined), the AC35 is reported as 56 µM.
`C/C(=N\NC(=S)N1CCN(c2ccccn2)CC1)c1ccccn1` gave an AC35 of 11.3 µM.
Work on `Fc1ccc2c(c1)c1nnc(SCCN3CCOCC3)nc1n2Cc1ccccc1` yielded an AC35 of 16.9 µM.
With `C[C@@H]1CN([C@@H](C)CO)C(=O)c2cc(NC(=O)Nc3ccc(C(F)(F)F)cc3)ccc2O[C@@H](C)CCCCO[C@@H]1CN(C)CC1CCCCC1` the AC35 was 62.9 µM.
Molecule `C/C(=N\NC(=S)N1CCCCC1)c1ccccn1` has an AC35 of 10.9 µM.

Tested on: not listed separately
Experiment: as above
Conditions: HEK293T viability, CellTiter-Glo ATP luminescence, 48 h; at 10 µM (top of the series)
For `C/C(=N\NC(=S)N1CC2CCC(CC2)C1)c1ccncn1`, the activity change, negative = cytotoxicity was 18.8% (inactive).

Same assay, conditions: HEK293T viability, CellTiter-Glo ATP luminescence, 48 h; at 15 µM (top of the series)
In the case of `C=C1C[C@]23C[C@@]1(O)CC[C@H]2[C@@]12C=C[C@H](O)[C@@](C)(C(=O)O1)[C@H]2[C@@H]3C(=O)O`, the activity change, negative = cytotoxicity is reported as 15.6% (inactive).

Same assay, conditions: HEK293T viability, CellTiter-Glo ATP luminescence, 48 h; at 19.5 µM (top of the series)
With `C/C(=N\NC(=S)Nc1cccc(C)c1)c1ccccn1` the activity change, negative = cytotoxicity was -10.2% (inactive).
In the case of `CSC(=S)N/N=C(\C)c1cccc(C)n1`, the activity change, negative = cytotoxicity is reported as 17.8% (inactive).
For `S=C(N/N=C(\c1ccccc1)c1ccccn1)N(Cc1ccccn1)Cc1ccccn1`, the activity change, negative = cytotoxicity was 8.82% (inactive).
For `COc1ccccc1NC(=S)N/N=C(\C)c1ccccn1`, the activity change, negative = cytotoxicity was 3.97% (inactive).

Same assay, conditions: HEK293T viability, CellTiter-Glo ATP luminescence, 48 h; at 26 µM (top of the series)
For `O=C(CCc1ccccc1)NC(c1cccs1)c1cc(Cl)c2cccnc2c1O` (centres undefined), the activity change, negative = cytotoxicity was 6.13% (inactive).
With `Cc1cc(NC(=O)c2ccc3c(c2)OCCO3)no1` the activity change, negative = cytotoxicity was 6.92% (inactive).
In the case of `O=C(Nc1cc(C(F)(F)F)cc(C(F)(F)F)c1)Nc1cnn(-c2ccc([N+](=O)[O-])cc2)c1C(F)(F)F`, the activity change, negative = cytotoxicity is reported as 5.06% (inactive).
For `CSc1nc(-c2ccc(C)cc2)nc(C(Cl)Cl)n1`, the activity change, negative = cytotoxicity was 1.77% (inactive).
With `COc1ccc(-c2csc3ncnc(NCCN4CCOCC4)c23)cc1` the activity change, negative = cytotoxicity was 7.09% (inactive).
In the case of `CC12CCC3C(CC=C4CC(O)CCC43CO)C1CCC2OC(=O)c1ccccc1` (centres undefined), the activity change, negative = cytotoxicity is reported as -2.56% (inactive).
For `CCn1c2ccccc2c2cc(/C=N/n3cnnc3)ccc21`, the activity change, negative = cytotoxicity was 12.2% (inactive).
For `Oc1cccc(C(Nc2nccs2)c2ccc3cccnc3c2O)c1` (centres undefined), the activity change, negative = cytotoxicity was 4.52% (inactive).
With `COc1ccc(C(=O)Nc2ccc3[nH]ccc3c2)cc1` the activity change, negative = cytotoxicity was 12.8% (inactive).
In the case of `CCc1ccc(/C=C2\SC(=S)N(CCCC(=O)Nc3ccccn3)C2=O)cc1`, the activity change, negative = cytotoxicity is reported as 1.67% (inactive).
For `C[C@@H]1CN([C@@H](C)CO)C(=O)c2cc(NC(=O)Nc3ccc4c(c3)OCO4)ccc2O[C@H]1CN(C)CC1CCCCC1`, the activity change, negative = cytotoxicity was -4.73% (inactive).
With `COc1ccc(-c2cc3nc4n(c(=O)c3s2)CCC4)cc1` the activity change, negative = cytotoxicity was 3.13% (inactive).
In the case of `CCN1CCN(C(c2cccnc2)c2cc(Cl)c3cccnc3c2O)CC1` (centres undefined), the activity change, negative = cytotoxicity is reported as 14% (inactive).
For `C[C@@H]1CCCCO[C@H](CN(C)C(=O)NC2CCCCC2)[C@H](C)CN([C@@H](C)CO)C(=O)c2cc(NC(=O)C3CCCCC3)ccc2O1`, the activity change, negative = cytotoxicity was 3.97% (inactive).
For `c1ccc(-c2cn3c4c(sc3n2)CCCC4)cc1`, the activity change, negative = cytotoxicity was 3.96% (inactive).
For `C[C@@H]1CCCCO[C@H](CN(C)CC2CCCCC2)[C@H](C)CN([C@@H](C)CO)C(=O)c2cc(NC(=O)NC3CCCCC3)ccc2O1`, the activity change, negative = cytotoxicity was 4.75% (inactive).
For `COc1cccc(/C=N/Nc2ncnc3c2ncn3Cc2ccccc2)c1O`, the activity change, negative = cytotoxicity was 15.7% (inactive).
For `Cc1ccc(S(=O)(=O)NC(CC(C)C)C(=O)NCC(c2ccco2)N2CCCCC2)cc1` (centres undefined), the activity change, negative = cytotoxicity was 2.47% (inactive).
With `CC1CN(C(=O)CSc2nnc3c4ccccc4n(Cc4cccc(Cl)c4)c3n2)CCN1C(=O)c1ccccc1F` (centres undefined) the activity change, negative = cytotoxicity was 19.4% (inactive).
In the case of `CCc1ccc(/C=C/C(=O)C2C(=O)c3ccccc3C2=O)cc1`, the activity change, negative = cytotoxicity is reported as 1.92% (inactive).
In the case of `COc1ccccc1[C@]1(C)ON(c2ccccc2C(F)(F)F)C1=O`, the activity change, negative = cytotoxicity is reported as 21.8% (inactive).
With `O=c1[nH]c(Nc2nc3ccccc3o2)nc2c1CCCC2` the activity change, negative = cytotoxicity was -4.82% (inactive).
With `C[C@@H]1CCCCO[C@H](CN(C)C(=O)CCC(F)(F)F)[C@H](C)CN([C@@H](C)CO)C(=O)c2cc(NC(=O)CCC(F)(F)F)ccc2O1` the activity change, negative = cytotoxicity was -7.41% (inactive).
With `C[C@@H]1CCCCO[C@H](CN(C)C(=O)c2ccccc2)[C@H](C)CN([C@@H](C)CO)C(=O)c2cc(NC(=O)Nc3ccc(F)cc3)ccc2O1` the activity change, negative = cytotoxicity was 5.32% (inactive).
For `C[C@H](CO)N1C[C@H](C)[C@@H](CN(C)CC2CC2)OCCCC[C@H](C)Oc2ccc(NC(=O)Nc3cccc4ccccc34)cc2C1=O`, the activity change, negative = cytotoxicity was 33.4% (inactive).
With `CC1=C(C(=O)OCc2ccc3c(c2)OCO3)C(c2ccc(F)cc2)NC(=O)N1` (centres undefined) the activity change, negative = cytotoxicity was 1.04% (inactive).
In the case of `C[C@@H]1CCCCO[C@@H](CN(C)Cc2ccccc2)[C@H](C)CN([C@H](C)CO)C(=O)c2cc(NC(=O)Nc3ccc4c(c3)OCO4)ccc2O1`, the activity change, negative = cytotoxicity is reported as 1.15% (inactive).
For `C[C@@H]1CCCCO[C@H](CN(C)S(=O)(=O)c2ccccc2)[C@@H](C)CN([C@@H](C)CO)C(=O)c2cc(N(C)C)ccc2O1`, the activity change, negative = cytotoxicity was 16.8% (inactive).
For `CC(=O)Nc1nc(C)c(-c2csc(Nc3ccc(O)cc3)n2)s1`, the activity change, negative = cytotoxicity was 2.53% (inactive).
In the case of `Cc1ccc(S(=O)(=O)Nc2ccc3c(c2)C(=O)N([C@@H](C)CO)C[C@H](C)[C@@H](CN(C)C(=O)CCC(F)(F)F)OCCCC[C@H](C)O3)cc1`, the activity change, negative = cytotoxicity is reported as 0.533% (inactive).
In the case of `O=C(CSc1nnc2c3ccccc3n(Cc3ccccc3)c2n1)NCc1ccco1`, the activity change, negative = cytotoxicity is reported as -2.78% (inactive).
In the case of `O=C1/C(=C/c2ccncc2)SC(=S)N1Cc1ccccc1`, the activity change, negative = cytotoxicity is reported as 7.62% (inactive).
For `C=CCN1Cc2ccccc2[C@@H]2OC(c3ccc(OCCCO)cc3)=N[C@]2(CCC(=O)OC(C)(C)C)C1=O`, the activity change, negative = cytotoxicity was 6.61% (inactive).
With `COc1ccc2nc(Nc3nc(C)c(CCC(C)C)c(=O)[nH]3)nc(C)c2c1` the activity change, negative = cytotoxicity was 4.99% (inactive).
In the case of `C[C@@H]1CN([C@@H](C)CO)C(=O)c2cc(NC(=O)Nc3ccc(C(F)(F)F)cc3)ccc2O[C@@H](C)CCCCO[C@H]1CN(C)Cc1ccc(C(F)(F)F)cc1`, the activity change, negative = cytotoxicity is reported as -3.84% (inactive).
For `COc1ccc2[nH]c(C(=O)N/N=C/c3ccc(O)cc3O)cc2c1`, the activity change, negative = cytotoxicity was 3.87% (inactive).
For `c1ccc(Cn2c3ccccc3c3nnc(SCCN4CCCCC4)nc32)cc1`, the activity change, negative = cytotoxicity was -15% (inactive).
In the case of `Cc1ccc(NC(=O)C2CCN(S(=O)(=O)c3ccc4c(c3)NC(=O)C(C)S4)CC2)cc1Cl` (centres undefined), the activity change, negative = cytotoxicity is reported as 44.9% (inactive).
In the case of `CNC[C@@H]1Oc2ccc(NS(=O)(=O)c3cn(C)cn3)cc2CC(=O)N([C@H](C)CO)C[C@@H]1C`, the activity change, negative = cytotoxicity is reported as -4.73% (inactive).
